Laboratory results published in ChEMBL document CHEMBL6127124, “Structure-Activity Relationships and Discovery of (S)-5-(tert-Butyl)-11-(difluoromethoxy)-9-methoxy-2-oxo-1,2,5,6-tetrahydropyrido[2',1':2,3]imidazo[4,5-h]quinoline-3-carboxylic Acid (AB-161), a Novel Orally Available and Liver-Centric HBV RNA Destabilizer” (J Med Chem, 2024).
pIC50: −log10 of the molar value.

Columns and labels:
Hepatitis B virus [1] = test: Antiviral activity against HBV genotype D in immuno-competent C57BL/6 mouse model of chronic HBV assessed as log10 reduction in HBsAg production at 10 mg/kg, po qd for 7 days measured 24 hrs post-last dose by EIA (reference value: 0.98); type: functional; conditions: time 8 day
[2] = Metabolic stability in Beagle dog liver microsomes assessed as clearance at 0.3 uM preincubated for 5 mins followed by NADPH addition measured upto 60 mins by LC-MS/MS analysis; type: ADME, Canis lupus familiaris, Microsome; conditions: read-out: CLH
Cytochrome P450 2B6 = biological target: T1, Cytochrome P450 2B6 (Homo sapiens, UniProt P20813); test: Inhibition of CYP2B6 in human liver microsomes using bupropion as substrate preincubated for 30 min followed by NADPH addition measured after 12 mins by LC-MS/MS analysis; type: ADME, Microsome
T1 sequence (P20813 whole entry): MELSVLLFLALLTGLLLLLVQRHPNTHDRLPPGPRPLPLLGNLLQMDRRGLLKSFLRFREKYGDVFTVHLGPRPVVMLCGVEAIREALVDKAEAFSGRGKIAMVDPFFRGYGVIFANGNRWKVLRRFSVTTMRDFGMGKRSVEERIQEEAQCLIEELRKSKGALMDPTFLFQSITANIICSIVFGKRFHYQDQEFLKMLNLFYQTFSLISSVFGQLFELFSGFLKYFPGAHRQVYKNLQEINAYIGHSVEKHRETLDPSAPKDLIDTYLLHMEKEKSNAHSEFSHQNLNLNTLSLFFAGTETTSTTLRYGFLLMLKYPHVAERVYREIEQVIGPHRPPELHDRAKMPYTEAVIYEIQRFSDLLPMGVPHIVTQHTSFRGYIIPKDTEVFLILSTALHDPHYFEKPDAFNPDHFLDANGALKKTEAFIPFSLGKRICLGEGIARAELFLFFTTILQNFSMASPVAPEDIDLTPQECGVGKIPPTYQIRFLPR

[3] = Drug concentration in Beagle dog liver at 10 mg/kg, po measured for 12 hrs by LC-MS/MS analysis; type: ADME, organism-based, Canis lupus familiaris; conditions: read-out: Ct
[4] = Ratio of total drug concentration in liver to plasma in CD-1 mouse at 0.2 mg/kg, po measured for 12 hrs by LC-MS/MS analysis; type: ADME, organism-based; conditions: liver and plasma
[5] = Selectivity ratio of drug concentration in liver in CD-1 mouse at 0.2 mg/kg, po measured for 24 hrs to EC90 for antiviral activity against HBV infected in human HepG2.2.15 cells assessed as reduction in HBsAg level; type: ADME, organism-based; conditions: in vivo
Cytochrome P450 1A2 = biological target: T2, Cytochrome P450 1A2 (Homo sapiens, UniProt P05177); test: Inhibition of CYP1A2 in human liver microsomes using phenacetin as substrate preincubated for 30 min followed by NADPH addition measured after 12 mins by LC-MS/MS analysis; type: ADME, Microsome
T2 sequence (P05177 whole entry): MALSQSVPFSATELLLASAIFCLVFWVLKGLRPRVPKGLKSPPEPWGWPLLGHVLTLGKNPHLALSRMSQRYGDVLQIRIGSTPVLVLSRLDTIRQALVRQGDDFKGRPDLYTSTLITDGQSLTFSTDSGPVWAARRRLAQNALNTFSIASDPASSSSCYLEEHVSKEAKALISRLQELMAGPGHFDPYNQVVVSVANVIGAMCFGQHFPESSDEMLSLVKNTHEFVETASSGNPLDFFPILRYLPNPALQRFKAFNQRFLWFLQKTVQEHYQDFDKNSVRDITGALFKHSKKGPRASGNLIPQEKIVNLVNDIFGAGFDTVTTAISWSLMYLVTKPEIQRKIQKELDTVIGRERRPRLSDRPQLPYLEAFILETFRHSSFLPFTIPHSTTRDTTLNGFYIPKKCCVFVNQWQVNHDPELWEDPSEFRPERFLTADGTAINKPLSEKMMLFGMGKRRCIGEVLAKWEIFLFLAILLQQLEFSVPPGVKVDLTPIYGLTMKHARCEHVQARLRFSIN

Cytochrome P450 2C9 = Cytochrome P450 2C9 (Homo sapiens, UniProt P11712); test: Inhibition of CYP2C9 in human liver microsomes using diclofenac as substrate preincubated for 30 min followed by NADPH addition measured after 12 mins by LC-MS/MS analysis; type: ADME, Microsome
Cytochrome P450 2C19 = Cytochrome P450 2C19 (Homo sapiens, UniProt P33261); test: Inhibition of CYP2C19 in human liver microsomes using S-mephenytoin as substrate preincubated for 30 min followed by NADPH addition measured after 12 mins by LC-MS/MS analysis; type: ADME, Microsome
Cytochrome P450 2D6 = Cytochrome P450 2D6 (Homo sapiens, UniProt P10635); test: Inhibition of CYP2D6 in human liver microsomes using dextromethorphan as substrate preincubated for 30 min followed by NADPH addition measured after 12 mins by LC-MS/MS analysis; type: ADME, Microsome
Cytochrome P450 3A4 [6] = biological target: T3, Cytochrome P450 3A4 (Homo sapiens, UniProt P08684); test: Inhibition of CYP3A4 in human liver microsomes using midazolam as substrate preincubated for 30 min followed by NADPH addition measured after 12 mins by LC-MS/MS analysis; type: ADME, Microsome
Cytochrome P450 3A4 [7] = biological target: T3, Cytochrome P450 3A4; test: Inhibition of CYP3A4 in human liver microsomes using testosterone as substrate preincubated for 30 min followed by NADPH addition measured after 12 mins by LC-MS/MS analysis; type: ADME, Microsome
Hepatitis B virus [8] = test: Antiviral activity against HBV genotype D in immuno-competent C57BL/6 mouse model of chronic HBV assessed as log10 reduction in serum HBsAg production at 0.3 mg/kg, po qd for 14 days measured 24 hrs post-last dose by EIA relative to control; type: functional; conditions: time 15 day
Hepatitis B virus [9] = test: Antiviral activity against HBV genotype D in immuno-competent C57BL/6 mouse model of chronic HBV assessed as log10 reduction in serum HBsAg production at 30 mg/kg, po qd for 14 days measured 24 hrs post-last dose by EIA relative to control; type: functional; conditions: time 15 day
[10] = Drug concentration in CD-1 mouse kidney at 10 mg/kg, po measured for 24 hrs by LC-MS/MS analysis; type: ADME, organism-based; conditions: read-out: Ct
[11] = Drug concentration in Sprague-Dawley rat plasma at 5 mg/kg, po measured for 24 hrs by LC-MS/MS analysis; type: ADME, organism-based; conditions: read-out: Ct
[12] = Drug concentration in Sprague-Dawley rat liver at 5 mg/kg, po measured for 24 hrs by LC-MS/MS analysis; type: ADME, organism-based; conditions: read-out: Ct
[13] = Drug concentration in Sprague-Dawley rat lung at 5 mg/kg, po measured for 24 hrs by LC-MS/MS analysis; type: ADME, organism-based
[14] = Drug concentration in Sprague-Dawley rat heart at 5 mg/kg, po measured for 24 hrs by LC-MS/MS analysis; type: ADME, organism-based
[15] = Ratio of drug concentration in lung to plasma of CD-1 mouse at 10 mg/kg, po measured for 24 hrs by LC-MS/MS analysis; type: ADME, organism-based; conditions: lung and plasma
[16] = Ratio of drug concentration in heart to plasma of CD-1 mouse at 10 mg/kg, po measured for 24 hrs by LC-MS/MS analysis; type: ADME, organism-based; conditions: heart and plasma
[17] = Ratio of drug concentration in kidney to plasma of Sprague-Dawley rat at 5 mg/kg, po measured for 24 hrs by LC-MS/MS analysis; type: ADME, organism-based; conditions: kidney and plasma
[18] = in vivo, po, 5 mg/kg, 24 h, BLD = below limit of detection

T3 sequence (P08684 whole entry): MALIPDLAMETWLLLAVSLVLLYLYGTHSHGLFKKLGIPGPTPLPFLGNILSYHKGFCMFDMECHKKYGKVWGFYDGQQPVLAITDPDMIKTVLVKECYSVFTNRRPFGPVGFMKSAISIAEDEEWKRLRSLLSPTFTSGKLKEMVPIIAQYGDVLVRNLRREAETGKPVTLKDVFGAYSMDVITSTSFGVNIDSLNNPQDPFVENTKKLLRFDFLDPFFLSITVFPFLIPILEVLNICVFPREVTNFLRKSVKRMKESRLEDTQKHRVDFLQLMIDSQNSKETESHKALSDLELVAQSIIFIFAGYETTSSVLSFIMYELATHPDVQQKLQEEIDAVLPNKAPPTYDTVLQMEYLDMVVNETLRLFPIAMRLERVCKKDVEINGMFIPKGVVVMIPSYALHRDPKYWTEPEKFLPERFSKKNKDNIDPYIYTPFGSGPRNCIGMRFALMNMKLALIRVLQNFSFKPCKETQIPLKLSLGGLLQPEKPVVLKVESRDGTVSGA
Sequence of Cytochrome P450 2C19 (P33261 whole entry): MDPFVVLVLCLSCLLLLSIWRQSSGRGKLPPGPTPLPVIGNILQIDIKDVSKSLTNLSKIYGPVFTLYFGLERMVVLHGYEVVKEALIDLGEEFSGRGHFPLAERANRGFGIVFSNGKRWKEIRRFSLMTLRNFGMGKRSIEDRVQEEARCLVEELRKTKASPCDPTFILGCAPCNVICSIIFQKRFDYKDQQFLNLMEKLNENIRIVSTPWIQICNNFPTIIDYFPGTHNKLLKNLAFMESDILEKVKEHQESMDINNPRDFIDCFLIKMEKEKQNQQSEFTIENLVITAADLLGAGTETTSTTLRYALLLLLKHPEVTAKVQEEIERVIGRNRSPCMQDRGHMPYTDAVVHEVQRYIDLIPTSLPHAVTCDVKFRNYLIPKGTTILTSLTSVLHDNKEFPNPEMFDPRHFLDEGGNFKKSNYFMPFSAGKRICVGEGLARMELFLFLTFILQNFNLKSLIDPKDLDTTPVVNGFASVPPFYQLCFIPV
Sequence of Cytochrome P450 2C9 (P11712 whole entry): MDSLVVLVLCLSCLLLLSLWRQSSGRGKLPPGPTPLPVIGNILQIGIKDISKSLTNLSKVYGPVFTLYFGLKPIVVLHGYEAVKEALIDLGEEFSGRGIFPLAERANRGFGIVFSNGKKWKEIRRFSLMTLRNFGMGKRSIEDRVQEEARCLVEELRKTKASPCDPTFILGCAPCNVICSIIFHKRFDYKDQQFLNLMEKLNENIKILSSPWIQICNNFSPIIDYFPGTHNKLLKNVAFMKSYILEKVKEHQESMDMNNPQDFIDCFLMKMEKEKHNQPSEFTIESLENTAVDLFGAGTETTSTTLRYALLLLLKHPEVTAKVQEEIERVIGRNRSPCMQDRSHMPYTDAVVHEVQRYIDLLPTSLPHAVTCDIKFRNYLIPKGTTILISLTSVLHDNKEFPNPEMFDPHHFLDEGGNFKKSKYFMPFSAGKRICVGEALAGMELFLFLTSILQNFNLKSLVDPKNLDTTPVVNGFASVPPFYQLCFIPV
Sequence of Cytochrome P450 2D6 (P10635 whole entry): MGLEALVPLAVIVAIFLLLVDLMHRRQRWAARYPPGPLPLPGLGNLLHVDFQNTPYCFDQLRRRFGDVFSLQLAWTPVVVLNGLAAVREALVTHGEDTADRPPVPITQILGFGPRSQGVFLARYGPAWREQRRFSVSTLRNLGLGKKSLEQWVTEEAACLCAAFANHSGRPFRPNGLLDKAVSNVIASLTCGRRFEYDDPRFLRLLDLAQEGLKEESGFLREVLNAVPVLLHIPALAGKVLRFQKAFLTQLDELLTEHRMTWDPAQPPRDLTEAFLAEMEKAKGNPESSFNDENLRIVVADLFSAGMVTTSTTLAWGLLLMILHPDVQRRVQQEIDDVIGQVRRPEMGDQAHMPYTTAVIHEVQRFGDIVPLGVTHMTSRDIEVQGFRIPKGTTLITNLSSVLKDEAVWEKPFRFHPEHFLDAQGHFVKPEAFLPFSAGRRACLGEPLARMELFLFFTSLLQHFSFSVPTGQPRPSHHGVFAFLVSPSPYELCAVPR

COCCCOc1cc2c(nc1OC)-c1cc(=O)c(C(=O)O)cn1[C@H](C(C)C)C2
log(activity) (Hepatitis B virus [1]): 0.7 | microsomal CLint at 0.3 µM [2]: 4 µL/min/mg | pIC50 (Cytochrome P450 2B6): 4.68 | concentration at 12 h [3]: 140 ng/g

COc1cc(OC(F)F)c2nc3c(n2c1)C[C@@H](C(C)(C)C)c1cc(C(=O)O)c(=O)[nH]c1-3
Kp at 12 h [4]: 284 | Ratio [5]: 40 | log(activity) (Hepatitis B virus [1]): 0.67 | microsomal CLint at 0.3 µM [2]: 6 µL/min/mg | pIC50 (Cytochrome P450 1A2): < 4.60 | pIC50 (Cytochrome P450 2B6): < 4.60 | pIC50 (Cytochrome P450 2C9): 4.66 | pIC50 (Cytochrome P450 2C19): 4.68 | pIC50 (Cytochrome P450 2D6): < 4.60 | pIC50 (Cytochrome P450 3A4 [6]): < 4.60 | pIC50 (Cytochrome P450 3A4 [7]): < 4.60 | log(activity) (Hepatitis B virus [8]): 0.13 | log(activity) (Hepatitis B virus [9]): 0.94 | concentration at 24 h [10]: 71 ng/g | concentration at 24 h [11]: 0.7 ng/g | concentration at 24 h [12]: 13900 ng/g | Ct [13, 18]: Bld | Ct [14, 18]: Bld | concentration at 12 h [3]: 2910 ng/g | Kp at 24 h [15]: 0.4 | Kp at 24 h [16]: 0.3 | Kp at 24 h [17]: 7.9

CC(C)(C)[C@@H]1Cc2c(nc3c(C(F)(F)F)cc(C4CC4)cn23)-c2[nH]c(=O)c(C(=O)O)cc21
Kp at 12 h [4]: 120 | Ratio [5]: 51 | pIC50 (Cytochrome P450 1A2): < 4.60 | pIC50 (Cytochrome P450 2B6): < 4.60 | pIC50 (Cytochrome P450 2C9): 4.68 | pIC50 (Cytochrome P450 2C19): 4.66 | pIC50 (Cytochrome P450 2D6): < 4.60 | pIC50 (Cytochrome P450 3A4 [6]): < 4.60 | pIC50 (Cytochrome P450 3A4 [7]): < 4.60 | log(activity) (Hepatitis B virus [8]): 0.35 | log(activity) (Hepatitis B virus [9]): 1.35 | concentration at 24 h [10]: 23 ng/g | concentration at 24 h [11]: 6.7 ng/g | concentration at 24 h [12]: 6140 ng/g | concentration at 24 h ([13]; Sprague-Dawley, lung, read-out: Ct): 5 ng/g | concentration at 24 h ([14]; Sprague-Dawley, heart, read-out: Ct): 1.3 ng/g | concentration at 12 h [3]: 275 ng/g | Kp at 24 h [15]: 0.4 | Kp at 24 h [16]: 0.2 | Kp at 24 h [17]: 0.9
